The target of test [1] is T1, Beta-secretase 1 (Homo sapiens, UniProt P56817). In words: Inhibition of BACE1 by HPLC method.
Test [2] deals with T1, Beta-secretase 1. In words: Inhibition of BACE1 in human HEK293 cells expressing swedish mutant APP. It is filed as cell-based.

SMILES strings stand for the structures. pIC50: −log10 of the molar value.

One may read the pIC50 as the negative decadic logarithm of the IC50, by convention in mol/L.

T1 sequence (P56817 whole entry): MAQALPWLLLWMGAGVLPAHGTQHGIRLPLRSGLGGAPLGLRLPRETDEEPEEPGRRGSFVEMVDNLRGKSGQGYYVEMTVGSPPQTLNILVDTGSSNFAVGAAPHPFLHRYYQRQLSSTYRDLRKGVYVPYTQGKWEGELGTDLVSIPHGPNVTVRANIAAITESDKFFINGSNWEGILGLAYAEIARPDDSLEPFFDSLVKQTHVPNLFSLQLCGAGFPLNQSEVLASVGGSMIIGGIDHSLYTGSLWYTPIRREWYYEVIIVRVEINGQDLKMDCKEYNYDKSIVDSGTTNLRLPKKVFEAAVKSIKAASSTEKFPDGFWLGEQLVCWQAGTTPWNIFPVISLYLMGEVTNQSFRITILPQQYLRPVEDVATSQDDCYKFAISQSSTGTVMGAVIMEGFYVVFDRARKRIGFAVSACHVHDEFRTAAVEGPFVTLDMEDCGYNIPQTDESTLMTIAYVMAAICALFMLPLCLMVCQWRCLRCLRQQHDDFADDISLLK

With `CCC(C)[C@@]1(NC(C)=O)CCN([C@@H](CCc2ccccc2)C(=O)N[C@@H](Cc2cc(F)cc(F)c2)[C@H](O)[C@H]2Cc3cccc(OC)c3CN2)C1=O` (stereo partly specified), the negative-log IC50 (pIC50) in test [1] was 8.38; in test [2] it was 7.70.

As for `CCC(C)[C@@]1(NC(C)=O)CCN([C@@H](CCc2ccccc2)C(=O)N[C@@H](Cc2cc(F)cc(F)c2)[C@H](O)[C@H]2C[C@@H](OCc3cccc(C#N)c3)CN2)C1=O` (stereo partly specified), the negative-log IC50 (pIC50) in test [1] is 8.52; in test [2], 8.38.

Take `CCC(C)[C@@]1(NC(C)=O)CCN([C@@H](CCc2ccccc2)C(=O)N[C@@H](Cc2cc(F)cc(F)c2)[C@H](O)[C@H]2C[C@@H](Oc3ccccn3)CN2)C1=O` (stereo partly specified): the pIC50 was 8.59 in test [1] and 8.68 in test [2].

As to `CCC(C)[C@@]1(NC(C)=O)CCN([C@@H](CCc2ccccc2)C(=O)N[C@@H](Cc2cc(F)cc(F)c2)[C@H](O)[C@H]2Cc3ccccc3CN2)C1=O` (stereo partly specified), the pIC50 in test [1] is 7.27; in test [2] it was 6.96. Regarding `CCC(C)[C@@]1(NC(C)=O)CCN([C@@H](CCc2ccccc2)C(=O)N[C@@H](Cc2cc(F)cc(F)c2)[C@H](O)[C@H]2C[C@@H](N)CN2)C1=O` (stereo partly specified), the negative-log IC50 (pIC50) in test [1] is 7.47; in test [2], 6.57. On the same counts, the results for `CCCC[C@H]1CCN([C@@H](C)C(=O)N[C@@H](Cc2cc(F)cc(F)c2)[C@H](O)[C@H]2C[C@H](O)CN2)C1=O` are 7.02 and 5.85. Consider `COc1cccc(CNC[C@@H](O)[C@H](Cc2cc(F)cc(F)c2)NC(=O)[C@H](CCc2ccccc2)N2CC[C@H](C(C)C)C2=O)c1`, for which the pIC50 was 7.12 in test [1] and 6.66 in test [2]. Take `CCC[C@@H](O)[C@H]1CCN([C@@H](CCc2ccccc2)C(=O)N[C@@H](Cc2cc(F)cc(F)c2)[C@H](O)CNCc2cccc(OC)c2)C1=O`: the pIC50 in test [1] is 8.28; in test [2], 7.05. As to `COc1cccc(CNC[C@@H](O)[C@H](Cc2cc(F)cc(F)c2)NC(=O)[C@H](CCc2ccccc2)N2CC[C@@](CC3CC3)(NC(C)=O)C2=O)c1`, the negative logarithm of the IC50 (pIC50) in test [1] was 7.96; in test [2], 8.00.

In turn, `CCC(C)[C@@]1(NC(C)=O)CCN([C@@H](CCc2ccccc2)C(=O)N[C@@H](Cc2cc(F)cc(F)c2)[C@H](O)CNCc2cccc(OC)c2)C1=O` (stereo partly specified) had a pIC50 in test [1] of 8.21. Take `CCCC[C@H]1CCN([C@@H](CCc2ccccc2)C(=O)N[C@@H](Cc2cc(F)cc(F)c2)[C@H](O)[C@H]2C[C@@H](O)CN2)C1=O`: the pIC50 in test [1] is 7.60; in test [2], 6.19. `CCC(C)[C@@]1(NC(C)=O)CCN([C@@H](CCc2ccccc2)C(=O)N[C@@H](Cc2cc(F)cc(F)c2)[C@H](O)[C@H]2C[C@@H](Oc3ccccc3)CN2)C1=O` (stereo partly specified): the pIC50 in test [1] was 8.59; in test [2], 8.85. On the same counts, the results for `CCC(C)[C@@]1(NC(C)=O)CCN([C@@H](CCc2ccccc2)C(=O)N[C@@H](Cc2cc(F)cc(F)c2)[C@H](O)[C@H]2C[C@@H](OCc3cccc(C(F)(F)F)c3)CN2)C1=O` (stereo partly specified) are 8.57 and 7.15. In turn, `CC(C)C[C@H]1CCN([C@@H](CCc2ccccc2)C(=O)N[C@@H](Cc2cc(F)cc(F)c2)[C@H](O)[C@H]2C[C@@H](Oc3ccccn3)CN2)C1=O` had a pIC50 in test [2] of 6.29.

In the case of `COc1cccc(CNC[C@@H](O)[C@H](Cc2cc(F)cc(F)c2)NC(=O)[C@H](C)N2CC[C@H](CC(C)C)C2=O)c1`, the pIC50 is 7.05 in test [1] and 7.17 in test [2]. The like results for `COc1cccc(CNC[C@@H](O)[C@H](Cc2cc(F)cc(F)c2)NC(=O)[C@H](CCc2ccccc2)N2CC[C@H](CC(C)C)C2=O)c1` were, in that order, 7.70 and 6.62.

Turning to `CCC(C)[C@@]1(NC(C)=O)CCN([C@@H](CCc2ccccc2)C(=O)N[C@@H](Cc2cc(F)cc(F)c2)[C@H](O)[C@H]2C[C@@H](OCc3cccnc3)CN2)C1=O` (stereo partly specified), the negative logarithm of the IC50 (pIC50) in test [1] was 8.85; in test [2], 8.70.

For the compound `CCCC[C@H]1CCN([C@@H](CCc2ccccc2)C(=O)N[C@@H](Cc2cc(F)cc(F)c2)[C@H](O)CNCc2cccc(OC)c2)C1=O`, the negative-log IC50 (pIC50) in test [1] was 7.42; in test [2], 6.46. As for `CCC(C)[C@@]1(NC(C)=O)CCN([C@@H](C)C(=O)N[C@@H](Cc2cc(F)cc(F)c2)[C@H](O)[C@H]2C[C@H](O)CN2)C1=O` (stereo partly specified), the negative logarithm of the IC50 (pIC50) in test [1] is 7.51; in test [2] it was under 6.18.

`CCC(C)[C@@]1(NC(C)=O)CCN([C@@H](CCc2ccccc2)C(=O)N[C@@H](Cc2cc(F)cc(F)c2)[C@H](O)[C@H]2C[C@@H](O)CN2)C1=O` (stereo partly specified): the negative-log IC50 (pIC50) in test [1] was 8.19; in test [2], 7.54. On the same counts, the results for `CCCO[C@H]1CN[C@@H]([C@@H](O)[C@H](Cc2cc(F)cc(F)c2)NC(=O)[C@H](CCc2ccccc2)N2CC[C@H](COC)C2=O)C1` are 7.64 and 7.05. `CC(C)C[C@H]1CCN([C@@H](C)C(=O)N[C@@H](Cc2cc(F)cc(F)c2)[C@H](O)[C@H]2C[C@@H](Oc3ccccn3)CN2)C1=O`: the pIC50 in test [2] was 6.48.

As to `CCC(C)[C@@]1(NC(C)=O)CCN([C@@H](CCc2ccccc2)C(=O)N[C@@H](Cc2cc(F)cc(F)c2)[C@H](O)[C@H]2C[C@@H](OCc3ccccn3)CN2)C1=O` (stereo partly specified), the pIC50 in test [1] is 8.82; in test [2] it was 8.89. Turning to `CCC(C)[C@@]1(NC(C)=O)CCN([C@@H](CCc2ccccc2)C(=O)N[C@@H](Cc2cc(F)cc(F)c2)[C@H](O)[C@H]2C[C@H](N)CN2)C1=O` (stereo partly specified), the pIC50 in test [1] is 7.30; in test [2], 6.72.

With `COc1cccc(CNC[C@@H](O)[C@H](Cc2cc(F)cc(F)c2)NC(=O)[C@H](C)N2CC[C@H](C(C)C)C2=O)c1`, the negative logarithm of the IC50 (pIC50) is 6.77 in test [1] and 6.62 in test [2]. `CCC[C@@H](O)[C@H]1CCN([C@@H](C)C(=O)N[C@@H](Cc2cc(F)cc(F)c2)[C@H](O)[C@H]2C[C@H](O)CN2)C1=O`: the negative logarithm of the IC50 (pIC50) in test [1] is 7.40; in test [2], 6.06. With `CCCO[C@H]1CN[C@@H]([C@@H](O)[C@H](Cc2cc(F)cc(F)c2)NC(=O)[C@H](CCc2ccccc2)N2CC[C@H]([C@H](O)CCC)C2=O)C1`, the results for the negative-log IC50 (pIC50) in test [1] and in test [2] were 8.33 and 7.32, respectively. Regarding `CCCC[C@H]1CCN([C@@H](CCc2ccccc2)C(=O)N[C@@H](Cc2cc(F)cc(F)c2)[C@H](O)[C@H]2C[C@H](O)CN2)C1=O`, the results for the pIC50 in test [1] and in test [2] were 6.96 and 6.14, respectively. As for `CCC(C)[C@@]1(NC(C)=O)CCN([C@@H](CCc2ccccc2)C(=O)N[C@@H](Cc2cc(F)cc(F)c2)[C@H](O)[C@H]2C[C@@H](Oc3cccnc3)CN2)C1=O` (stereo partly specified), the negative logarithm of the IC50 (pIC50) in test [1] was 8.23; in test [2] it was 8.60. On the same counts, the results for `CCCO[C@H]1CN[C@@H]([C@@H](O)[C@H](Cc2cc(F)cc(F)c2)NC(=O)[C@H](C)N2CC[C@H](C(C)C)C2=O)C1` are 6.80 and 6.41.

On to `COC[C@H]1CCN([C@@H](C)C(=O)N[C@@H](Cc2cc(F)cc(F)c2)[C@H](O)CNCc2cccc(OC)c2)C1=O`, for which the negative logarithm of the IC50 (pIC50) in test [1] is 6.32; in test [2] it was 6.40. As to `CCC(C)[C@@]1(NC(C)=O)CCN([C@@H](CCc2ccccc2)C(=O)N[C@@H](Cc2cc(F)cc(F)c2)[C@H](O)[C@H]2C[C@@H](OCc3ccccc3)CN2)C1=O` (stereo partly specified), in test [2], the pIC50 was 7.92. Take `CCCC[C@H]1CCN([C@@H](CCc2ccccc2)C(=O)N[C@@H](Cc2cc(F)cc(F)c2)[C@H](O)[C@H]2C[C@@H](Oc3ccccn3)CN2)C1=O`: the pIC50 in test [2] was 6.44.

(Values after ChEMBL document CHEMBL1914313, “Monosubstituted γ-lactam and conformationally constrained 1,3-diaminopropan-2-ol transition-state isostere inhibitors of β-secretase (BACE)” (Bioorg Med Chem Lett, 2011).)
